Data: article PMC4226669, “Anti-cancer potency of tasquinimod is enhanced via albumin-binding facilitating increased uptake in the tumor microenvironment” (Oncotarget, 2014)
Like-named read-outs stand apart in the source and are kept apart here.

Experiments:
[1] = target: T1, human albumin (Homo sapiens, UniProt P02768); assay: Equilibrium dialysis binding to human albumin; conditions: pH 7.4, equilibrium dialysis, read-out: equilibrium dissociation constant (Kd)
T1 construct: purchased Sigma
Method: (§1) To determine whether albumin is the tasquinimod binding protein in plasma, albumin was removed from human plasma using an albumin depletion kit (Thermo Scientific cat # 85160). The albumin depleted plasma was then tested for its protein binding as described above. The dissociation constant (kd) for tasquinimod binding was determined based upon equilibrium dialysis of a mixture of 4mg/ml of the species (i.e., human, bovine, and mouse) specific albumin obtained from Sigma with 2μM of ^14C-labeled tasquinimod in PBS pH 7.4 buffer using a 96-well equilibrium dialyzer™ (Harvard Apparatus, Holliston,MA).

[2] = target: T2, mouse albumin (Mus musculus, UniProt P07724); assay: Equilibrium dialysis binding to mouse albumin; conditions: pH 7.4, equilibrium dialysis, read-out: equilibrium dissociation constant (Kd)
T2 construct: purchased Sigma
T2 sequence (P07724 25-608): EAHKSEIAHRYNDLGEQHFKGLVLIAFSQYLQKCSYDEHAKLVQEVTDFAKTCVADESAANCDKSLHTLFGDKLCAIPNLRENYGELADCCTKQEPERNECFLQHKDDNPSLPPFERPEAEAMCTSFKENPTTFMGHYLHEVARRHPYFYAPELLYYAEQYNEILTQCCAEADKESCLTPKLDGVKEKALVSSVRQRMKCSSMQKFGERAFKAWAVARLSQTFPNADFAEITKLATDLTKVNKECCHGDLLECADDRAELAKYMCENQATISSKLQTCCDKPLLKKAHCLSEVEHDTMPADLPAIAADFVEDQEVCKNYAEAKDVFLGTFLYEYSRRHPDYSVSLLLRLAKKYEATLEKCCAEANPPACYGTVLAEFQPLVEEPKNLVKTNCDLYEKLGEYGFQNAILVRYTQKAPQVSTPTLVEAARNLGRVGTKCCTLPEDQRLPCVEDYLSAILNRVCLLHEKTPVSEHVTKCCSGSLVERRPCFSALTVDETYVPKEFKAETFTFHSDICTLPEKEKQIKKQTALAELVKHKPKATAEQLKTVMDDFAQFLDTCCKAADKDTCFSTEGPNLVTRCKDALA
Method: as §1

[3] = Protein binding fraction (PBF) in human plasma; format: in vitro ADME; conditions: 1-50 μM radiolabeled tasquinimod
Method: (§2) An explanation for this highly restricted cellular uptake in the blood is provided by the fact that protein binding fraction (PBF) for tasquinimod in nude mouse plasma is 98 ± 1%. This is not a nude mouse specific effect since incubation of 1-50 μM radiolabeled tasquinimod with human plasma or bovine fetal serum (FBS) results in a PBF of ~ 98%.
(§3) Mice were orally gavaged with ^14C-labeled tasquinimod at a dose of 5mg/kg and 1 hour later blood collected and plasma isolated and the PBF determined as described previously using Centrifree® YM-30 centrifuge filter unit with a molecular weight cutoff of 30K (i.e., Millipore, Billerica,MO).

[4] = Protein binding fraction (PBF) in bovine fetal serum; format: in vitro ADME; conditions: bovine fetal serum (FBS), 1-50 μM radiolabeled tasquinimod
Method: as §2, §3

[5] = Tissue distribution and metabolites in nude mice bearing CWR-22Rv1 cancers; format: in vivo, mouse; conditions: for concentration at 4 h: male, nude, mouse
Method: To determine the concentration of metabolites, nude mice bearing CWR-22Rv1 prostate cancers were orally administered with 5 mg/kg of ^14C- radiolabeled tasquinimod and 4 and 24 hours later, blood plasma and liver, kidney, and cancer tissue harvested and analyzed for determination of metabolites. […] The predominant metabolite is the O-demethylated quinoline compound, Figure 2A&B, but the concentration of the hydroxylated aromatic quinoline and the N-demethylated quinoline compounds, along with the O-demethylated quinoline compound are also higher in the liver than the blood at the time point studied, Figure 2B. Also in the kidney 40% of the drug is present as metabolites, with the concentration of the hydroxylated aromatic quinoline and the O-demethylated quinoline compounds being higher than in the blood, Figure 2B. In contrast, within the cancer > 80% of the total concentration of drug is present as parent tasquinimod, Figure 2B. Only the O-demethylated quinoline compound is present at a higher concentration in the cancer than blood, Figure 2B. The plasma concentration of total metabolites is < 10% at 4 hours, Figure 2B, and 24 hours post oral dosing with 5 mg/kg, Figure 2A.
Male nude mice bearing 200-300mm^3 CWR-22Rv1 cancers were given ^14C-labeled tasquinimod at a dose of 5 mg/kg via oral gavage. At times ranging from 30 min to 24 hour, groups of 4-6 mice were anaesthetized with ketamine and 1 ml of heparinized blood collected by cardiac puncture, followed by subsequent cardiac perfusion of saline to remove blood associated drug. An aliquot of liver, kidney, and cancer was removed, weighed and then homogenized. The radioactivity in 10 μL aliquots of tissue homogenates and blood plasma was determined using a liquid scintillation counter and used to calculate the total amount of tasquinimod plus its metabolites per gram of tissue or per ml of blood. The remaining sample volume was deproteinated with acetonitrile and the radioactivity of an aliquot of the supernatant determined and the remaining supernatant lyophilized, resuspended initially with 0.1mL dimethyl sulfoxide and diluted by the addition of 0.9mL deionized water prior to injection into the HPLC. The HPLC system consisted of Waters pumps using a Waters gradient controller to deliver mobile phase at a flow rate of 1mL per minute using a Supelcosil ABZ+ C18 column that is 150mm long by 4.6mm diameter and has 5μm particle size. The metabolites were separated using a linear gradient in which the starting mobile phase was 35% acetonitrile: 65% water: 0.1% Trifluoroacetic acid (TFA) increasing to 50% acetonitrile: 50% water: 0.1%TFA over 25 minutes, and then increased rapidly to 98% acetonitrile: 2% water: 0.1%TFA and held until 33 minutes before it is returned to the initial conditions for the next run. Fractions were collected and the radioactivity determined by scintillation counting. As controls, the individual elution time of non-radiolabeled standard solutions of the various tasquinimod metabolites was determined using UV absorption at 215nm. The results were expressed as concentration based upon tissue volume, assuming 1gram wet weight equals 1ml, or normalized to tissue vascular volume.

[6] = system: CWR-22Rv1 human prostate cancer xenografts; assay: Dose-response growth inhibition of established CWR-22Rv1 xenografts (subcutaneous daily injection); format: in vivo, mouse; conditions: 20 days
Method: To confirm these in vitro results, mice were inoculated subcutaneously (SQ) with CWR-22Rv1 cells and remained untreated until the tumors grew to ~ 200 mm3 (i.e., ~ 200 mgs) and then they were randomly assigned to groups (n=10) which were injected SQ daily with 100 μl of propylene glycol vehicle only vs. vehicle delivering 0.1 or 1 mg/kg/day of either tasquinimod or its carboxamide-N-demethylated metabolite. Propylene glycol was used as vehicle due to the low water solubility of the carboxamide-N-demethylated metabolite. After 20 days of continuous treatment, the experiment was terminated and the total weight of each cancer determined and the results expressed both as average tumor weight in grams and as the ratio of the weight of the cancers in the treated vs. vehicle control animals (i.e., T/C ratio), Figure 5A.
The source, history, and characteristics of the human prostate cancer cell lines (i.e., LNCaP, LAPC4, and CWR-22Rv1 and the human umbilical vascular endothelial cells (HUVEC) used, as well as cell culture conditions for their in vitro maintenance and the in vivo protocol for their xenografting into immune-deficient nude male mice are as described previously. The source, history, and characteristics of the TRAMP-C2 mouse prostate cancer line, as well as cell culture conditions for their in vitro maintenance and the in vivo protocol for their growth in intact adult male syngeneic C57Bl/6J are as described previously. All lines were mycoplasma negative using the MycoSensor PCR Assay kit (Agilent Technologies) and genetically authenticated within the last 6 months using short tandem repeat profiling conducted by the Johns Hopkins Genetic Resource Core Facility. The source, history, and characteristics of the CWR-RH human prostate cancer xenograft are as described previously. In vitro growth curves were determined as described. Animal studies were conducted according to animal protocol MO09M434 approved by Johns Hopkins Animal Care and Use Committee. Daily drug dosing via oral gavage, the drinking water, or subcutaneous injection, as well as tumor volume measurements and determination of the blood vessel density within cancers, were as described previously. These experiments were repeated at 3 independent times for each xenograft.

T1 sequence (P02768 25-609): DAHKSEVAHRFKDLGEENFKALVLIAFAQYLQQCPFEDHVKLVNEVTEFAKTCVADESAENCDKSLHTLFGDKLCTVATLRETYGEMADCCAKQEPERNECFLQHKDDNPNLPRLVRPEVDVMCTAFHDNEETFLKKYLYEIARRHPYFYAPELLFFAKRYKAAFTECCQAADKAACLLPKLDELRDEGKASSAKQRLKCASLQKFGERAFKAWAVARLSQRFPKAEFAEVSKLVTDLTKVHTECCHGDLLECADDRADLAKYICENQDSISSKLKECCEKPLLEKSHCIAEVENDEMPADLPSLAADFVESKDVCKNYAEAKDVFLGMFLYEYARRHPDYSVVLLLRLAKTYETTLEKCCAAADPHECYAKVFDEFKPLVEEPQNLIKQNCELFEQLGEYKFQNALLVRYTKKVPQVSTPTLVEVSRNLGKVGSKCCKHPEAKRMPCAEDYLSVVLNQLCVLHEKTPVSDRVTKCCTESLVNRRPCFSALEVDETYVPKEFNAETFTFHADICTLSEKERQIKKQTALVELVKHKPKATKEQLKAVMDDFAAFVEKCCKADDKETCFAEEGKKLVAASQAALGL

SMILES: COc1cccc2c1c(O)c(C(=O)N(C)c1ccc(C(F)(F)F)cc1)c(=O)n2C [Tasquinimod]
- Kd [1]: 24 ± 4 µM
- Kd [2]: 16 ± 3 µM
- fraction unbound [3]: ~0.02
- fraction unbound [4]: ~0.02
- prostate cancer tissue concentration relative to liver or kidney, normalized to percent vascular volume ([5]; 5 mg/kg oral): 3-5 fold
- time to maximum total drug concentration in liver, kidney and cancer ([5]; 5 mg/kg oral, CWR-22Rv1 tumor bearing mice): ≤ 5 h
- total drug within the cancer present as parent tasquinimod ([5]; CWR-22Rv1 cancer, 4 hours post 5 mg/kg oral): > 80%
- percentage of total drug in CWR-22Rv1 cancer ([5]; CWR-22Rv1 cancer, 4 hours post oral 5mg/kg tasquinimod): 83+/-6%
- percentage of total drug in kidney ([5]; kidney, 4 hours post oral 5mg/kg tasquinimod): 60+/-7%
- percentage of total drug in liver ([5]; liver, 4 hours post oral 5mg/kg tasquinimod): 29+/-5%
- concentration at 4 h ([5]; CWR-22Rv1 cancer tissue, CWR-22Rv1 cancer, 4 hours post oral 5mg/kg tasquinimod, 1gm tissue = 1ml, read-out: concentration in CWR-22Rv1 cancer): 2.24 µM
- concentration at 4 h ([5]; kidney, 4 hours post oral 5mg/kg tasquinimod, 1gm tissue = 1ml, read-out: concentration in kidney): 2.3 µM
- concentration at 4 h ([5]; liver, 4 hours post oral 5mg/kg tasquinimod, 1gm tissue = 1ml, read-out: concentration in liver): 3.77 µM
- concentration at 4 h ([5]; plasma, 4 hours post oral 5mg/kg tasquinimod, read-out: concentration in plasma): 5.58 µM
- percentage of total drug in plasma ([5]; plasma, 4 hours post oral 5mg/kg tasquinimod): 93+/-6%
- Avg Tumor Weight ([6]; 0.1 mg/kg/day SQ): 0.855 ± 0.203 g
- T/C Ratio ([6]; 0.1 mg/kg/day SQ): 0.491
- Avg Tumor Weight ([6]; 1 mg/kg/day SQ): 0.668 ± 0.166 g
- T/C Ratio ([6]; 1 mg/kg/day SQ): 0.383
- potency on an equal dose basis vs carboxamide-N-demethylated metabolite ([6]; 0.1 or 1 mg/kg/day SQ): equipotent
